Measured values published in patent publication US20250151724A1, “Liquid Soil Treatments Containing Choline” (Harrell's, LLC, priority 2023, published 2025).
Read-outs that look alike come from different tables or passages of the source.

Legend:
[1] = test system: creeping bentgrass putting green
Protocol: The study was carried out on a creeping bentgrass putting green. There were two separate trials (Trial 1 and Trial 2). Trial 1 and Trial 2 were conducted side by side. Each trial consisted of 2 treatments with 4 replications. Plot size was 5×6 ft. Regular mowing and irrigation were performed. A randomized block design was used.
The treatments were as follows: • I. Choline Trial 1-Biweekly • 1. Fertilized Control • 2. Choline 0.5 oz./1,000 ft^2 every two weeks • II. Choline Trial 2-Monthly • 1. Fertilized Control • 2. Choline 0.5 oz./1,000 ft^2 every month
Between 0.125″ and 0.25″ of irrigation was applied 3-4 hours post application. All treatments received equal fertility (applied bi-weekly) with 28-8-18 with UMAXX® fertilizer (Harrell's, Lakeland, Florida) applied on the day following application of treatments.
The trials lasted for 15 weeks and a total of 7 treatment applications in the bi-weekly trial and 4 treatment applications in the monthly trial. The following measurements data were taken at the specified intervals throughout the trials: • a. Volumetric water content (VWC) was measured with a TDR350 moisture sensor (Turf-Tec Intentional, Tallahassee, FL) every 2 weeks. In addition, beginning on days 13, 34, and 69, irrigation was withheld for about 9 days to allow gradual decline of the soil water content, inducing significant decline in leaf color and turf quality. Volumetric water content was measured at day 0 (the day of initiation of irrigation withholding), day 3, day 6, and day 9. Irrigation was resumed after day 9 of the first and second dry down cycle. […] Three readings of VWC were collected from each plot and the average was used for statistical analysis. • b. Leaf color was rated based on a visual scale of 1 through 9, with 1 indicating brown color and 9 indicating dark green color. • c. Turf quality was rated based on a visual scale of 1 through 9, with 9 indicating the best quality and 6 indicating the minimum commercially acceptable quality.

[2] = Protocol: Soil cores (1 inch diameter and 6 inches deep) were taken from a creeping bentgrass putting green and dried at 65° C. for 48 hours then allowed to air dry for 2 days. […] The soil cores were allowed to air dry for additional 4 days and the water drop penetration test was repeated using the same method. The four treatments were 1) control (distilled water), 2) distilled water plus choline at 0.125 oz./1,000 ft^2, 3) distilled water plus choline at 0.25 oz./1,000 ft^2, and 4) distilled water plus choline at 0.5 oz./1,000 ft^2. There were 3 replications for each treatment. The water drops from distilled water or choline solution were placed on soil cores 0.75 inch from the soil surface. As soon as the water drops reached the soil, a timer was started. When each water drop had disappeared and the water had penetrated into the soil, the time elapsed was recorded.
[3] = 0.5 oz/1000 ft^2 biweekly, day 0
[4] = 0.5 oz/1000 ft^2 biweekly, day 14
[5] = 0.5 oz/1000 ft^2 biweekly, day 17
[6] = 0.5 oz/1000 ft^2 biweekly, day 20
[7] = 0.5 oz/1000 ft^2 biweekly, day 22
[8] = 0.5 oz/1000 ft^2 biweekly, day 29
[9] = 0.5 oz/1000 ft^2 biweekly, day 34
[10] = 0.5 oz/1000 ft^2 biweekly, day 38
[11] = 0.5 oz/1000 ft^2 biweekly, day 41
[12] = 0.5 oz/1000 ft^2 biweekly, day 43
[13] = 0.5 oz/1000 ft^2 biweekly, day 57
[14] = 0.5 oz/1000 ft^2 biweekly, day 71
[15] = 0.5 oz/1000 ft^2 biweekly, day 76
[16] = 0.5 oz/1000 ft^2 biweekly, day 78
[17] = 0.5 oz/1000 ft^2 biweekly, day 84
[18] = 0.5 oz/1000 ft^2 biweekly, day 98
[19] = 0.5 oz/1000 ft^2 monthly, day 0
[20] = 0.5 oz/1000 ft^2 monthly, day 14
[21] = 0.5 oz/1000 ft^2 monthly, day 17
[22] = 0.5 oz/1000 ft^2 monthly, day 20
[23] = 0.5 oz/1000 ft^2 monthly, day 22
[24] = 0.5 oz/1000 ft^2 monthly, day 29
[25] = 0.5 oz/1000 ft^2 monthly, day 34
[26] = 0.5 oz/1000 ft^2 monthly, day 38
[27] = 0.5 oz/1000 ft^2 monthly, day 41
[28] = 0.5 oz/1000 ft^2 monthly, day 43
[29] = 0.5 oz/1000 ft^2 monthly, day 57
[30] = 0.5 oz/1000 ft^2 monthly, day 71
[31] = 0.5 oz/1000 ft^2 monthly, day 76
[32] = 0.5 oz/1000 ft^2 monthly, day 78
[33] = 0.5 oz/1000 ft^2 monthly, day 84
[34] = 0.5 oz/1000 ft^2 monthly, day 98
[35] = choline 0.125 oz/1000 ft2 in distilled water
[36] = choline 0.25 oz/1000 ft2 in distilled water
[37] = choline 0.5 oz/1000 ft2 in distilled water

In the case of `C[N+](C)(C)CCO.[Cl-]` [Choline, choline chloride], the “Leaf color (1-9, 9 = dark green)” value [1, 3] is reported as 7.0a, the “Turf quality (1-9, 9 = best)” value [1, 3] is reported as 6.9a and the “Leaf color (1-9, 9 = dark green)” value [1, 4] is reported as 7.0a. For the same molecule, the “Turf quality (1-9, 9 = best)” value [1, 4] was 7.1a, the “Leaf color (1-9, 9 = dark green)” value [1, 5] was 7.0a and the “Turf quality (1-9, 9 = best)” value [1, 5] was 7.0a. The “Leaf color (1-9, 9 = dark green)” value [1, 6] was 7.0a, the “Turf quality (1-9, 9 = best)” value [1, 6] was 7.0a and the “Leaf color (1-9, 9 = dark green)” value [1, 7] was 6.9a. The “Turf quality (1-9, 9 = best)” value [1, 7] was 7.0a, the “Leaf color (1-9, 9 = dark green)” value [1, 8] was 7.0a and the “Turf quality (1-9, 9 = best)” value [1, 8] was 7.0a. The “Leaf color (1-9, 9 = dark green)” value [1, 9] was 7.4a, the “Turf quality (1-9, 9 = best)” value [1, 9] was 6.9a and the “Leaf color (1-9, 9 = dark green)” value [1, 10] was 7.5a. For the same molecule, the “Turf quality (1-9, 9 = best)” value [1, 10] was 7.1a, the “Leaf color (1-9, 9 = dark green)” value [1, 11] was 7.4a and the “Turf quality (1-9, 9 = best)” value [1, 11] was 7.0a. For the same molecule, the “Leaf color (1-9, 9 = dark green)” value [1, 12] was 7.1a, the “Turf quality (1-9, 9 = best)” value [1, 12] was 6.5a and the “Leaf color (1-9, 9 = dark green)” value [1, 13] was 6.5a. For the same molecule, the “Turf quality (1-9, 9 = best)” value [1, 13] was 5.9a, the “Leaf color (1-9, 9 = dark green)” value [1, 14] was 6.4a and the “Turf quality (1-9, 9 = best)” value [1, 14] was 6.1a. The “Leaf color (1-9, 9 = dark green)” value [1, 15] was 6.5a, the “Turf quality (1-9, 9 = best)” value [1, 15] was 6.0a and the “Leaf color (1-9, 9 = dark green)” value [1, 16] was 6.4a. For the same molecule, the “Turf quality (1-9, 9 = best)” value [1, 16] was 5.6a, the “Leaf color (1-9, 9 = dark green)” value [1, 17] was 6.8a and the “Turf quality (1-9, 9 = best)” value [1, 17] was 5.8a. The “Leaf color (1-9, 9 = dark green)” value [1, 18] was 7.0a, the “Turf quality (1-9, 9 = best)” value [1, 18] was 6.1a and the “Leaf color (1-9, 9 = dark green)” value [1, 19] was 7.0a. The “Turf quality (1-9, 9 = best)” value [1, 19] was 7.0a, the “Leaf color (1-9, 9 = dark green)” value [1, 20] was 6.9a and the “Turf quality (1-9, 9 = best)” value [1, 20] was 6.9a. For the same molecule, the “Leaf color (1-9, 9 = dark green)” value [1, 21] was 7.0a, the “Turf quality (1-9, 9 = best)” value [1, 21] was 7.0a and the “Leaf color (1-9, 9 = dark green)” value [1, 22] was 7.0a. For the same molecule, the “Turf quality (1-9, 9 = best)” value [1, 22] was 7.3a, the “Leaf color (1-9, 9 = dark green)” value [1, 23] was 6.9a and the “Turf quality (1-9, 9 = best)” value [1, 23] was 6.6a. The “Leaf color (1-9, 9 = dark green)” value [1, 24] was 7.0a, the “Turf quality (1-9, 9 = best)” value [1, 24] was 6.6a and the “Leaf color (1-9, 9 = dark green)” value [1, 25] was 7.5a. The “Turf quality (1-9, 9 = best)” value [1, 25] was 7.3a, the “Leaf color (1-9, 9 = dark green)” value [1, 26] was 7.1a and the “Turf quality (1-9, 9 = best)” value [1, 26] was 7.0a. For the same molecule, the “Leaf color (1-9, 9 = dark green)” value [1, 27] was 7.5a, the “Turf quality (1-9, 9 = best)” value [1, 27] was 7.0a and the “Leaf color (1-9, 9 = dark green)” value [1, 28] was 6.9a. For the same molecule, the “Turf quality (1-9, 9 = best)” value [1, 28] was 6.6a, the “Leaf color (1-9, 9 = dark green)” value [1, 29] was 7.1a and the “Turf quality (1-9, 9 = best)” value [1, 29] was 6.8a. For the same molecule, the “Leaf color (1-9, 9 = dark green)” value [1, 30] was 6.9a, the “Turf quality (1-9, 9 = best)” value [1, 30] was 6.8a and the “Leaf color (1-9, 9 = dark green)” value [1, 31] was 7.0a. The “Turf quality (1-9, 9 = best)” value [1, 31] was 6.6a, the “Leaf color (1-9, 9 = dark green)” value [1, 32] was 7.0a and the “Turf quality (1-9, 9 = best)” value [1, 32] was 6.5a. For the same molecule, the “Leaf color (1-9, 9 = dark green)” value [1, 33] was 7.3a, the “Turf quality (1-9, 9 = best)” value [1, 33] was 7.0a and the “Leaf color (1-9, 9 = dark green)” value [1, 34] was 7.7a. The “Turf quality (1-9, 9 = best)” value [1, 34] was 7.3a, the “time of water drop penetration, first test” value ([2]; 2 days after oven drying of soil cores, not quantified) was “reduced the time of water drop penetration” and the “Time of water drop penetration, Average” value [2, 35] was 250.3ab seconds. The “Time of water drop penetration, Rep I” value [2, 35] was 454 s, the “Time of water drop penetration, Rep II” value [2, 35] was 106 s and the “Time of water drop penetration, Rep III” value [2, 35] was 191 s. The “Time of water drop penetration, Average” value ([2]; choline 0.125 oz/1000 ft2 in distilled water, listed as choline) was 250.3 s, the “Time of water drop penetration, Average” value [2, 36] was 129.7ab seconds and the “Time of water drop penetration, Rep I” value [2, 36] was 110 s. The “Time of water drop penetration, Rep II” value [2, 36] was 72 s, the “Time of water drop penetration, Rep III” value [2, 36] was 207 s and the “Time of water drop penetration, Average” value ([2]; choline 0.25 oz/1000 ft2 in distilled water, listed as choline) was 129.7 s. The “Time of water drop penetration, Average” value [2, 37] was 97.7b seconds, the “Time of water drop penetration, Rep I” value [2, 37] was 97 s and the “Time of water drop penetration, Rep II” value [2, 37] was 26 s. The “Time of water drop penetration, Rep III” value [2, 37] was 170 s, the “Time of water drop penetration, Average” value ([2]; choline 0.5 oz/1000 ft2 in distilled water, listed as choline) was 97.7 s and the “Water drop penetration time shorter relative to the control (distilled water)” value ([2]; choline solution 0.5 oz./1,000 ft^2) was 2.5 fold.
